Measured values reported in patent publication US20020081596A1, “Compositions and methods for the identification, assessment, prevention, and therapy of human cancers” (priority 2000, published 2002).

Key:
[1] = system: TAXOL resistant cancer cell lines; test: Growth inhibition (GI50) by TAXOL, mean of nine resistant cell lines; type: cell-based, human; details: mean of the nine TAXOL resistant cell lines of Table B
Procedure: (§1) One group of nine cell lines was determined to be sensitive to TAXOL (Table C), the other group of nine cell lines was determined to be resistant to TAXOL (Table B). Sensitivity to TAXOL was based of known GI50 values for these cells, which for this study was defined as the concentration of TAXOL required to inhibit growth of the cell line by 50%. More precisely, the quantity used in the calculation is the potency measure −log{GI50}. Pooled RNA from TAXOL sensitive cancer cell lines was used as tester against driver RNA pooled from TAXOL resistant cancer cell lines. Pooled RNA from TAXOL resistant cancer cell lines was used as tester against driver RNA pooled from TAXOL sensitive cancer cell lines.

[2] = system: TAXOL sensitive cancer cell lines; test: Growth inhibition (GI50) by TAXOL, mean of nine sensitive cell lines; type: cell-based, human; details: mean of the nine TAXOL sensitive cell lines of Table C
Procedure: as §1

[3] = system: EKVX; details: non-small cell lung carcinoma, TAXOL resistant cell line; cited from earlier work
[4] = system: HOP-92; details: HOP-92, non-small cell lung carcinoma, TAXOL resistant cell line; cited from earlier work
[5] = system: HCT-15; details: HCT-15, colon, TAXOL resistant cell line; cited from earlier work
[6] = system: MALME-3M; details: melanoma, TAXOL resistant cell line; cited from earlier work
[7] = system: SK-MEL-28; details: SK-MEL-28, melanoma, TAXOL resistant cell line; cited from earlier work
[8] = system: OVCAR-4; details: OVCAR-4, ovarian, TAXOL resistant cell line; cited from earlier work
[9] = system: ACHN; details: renal, TAXOL resistant cell line; cited from earlier work
[10] = system: MCF-7/AdrRes; details: breast, TAXOL resistant cell line; cited from earlier work
[11] = system: T-47D; details: breast, TAXOL resistant cell line; cited from earlier work
[12] = system: NCl-H460; details: NCl-H460, non-small cell lung carcinoma, TAXOL sensitive cell line; cited from earlier work
[13] = system: NCl-H522; details: NCl-H522, non-small cell lung carcinoma, TAXOL sensitive cell line; cited from earlier work
[14] = system: HT-29; details: HT-29, colon, TAXOL sensitive cell line; cited from earlier work
[15] = system: SK-MEL-2; details: SK-MEL-2, melanoma, TAXOL sensitive cell line; cited from earlier work
[16] = system: SK-MEL-5; details: SK-MEL-5, melanoma, TAXOL sensitive cell line; cited from earlier work
[17] = system: OVCAR-3; details: OVCAR-3, ovarian, TAXOL sensitive cell line; cited from earlier work
[18] = system: SN12C; details: renal, TAXOL sensitive cell line; cited from earlier work
[19] = system: MCF-7; details: MCF-7, breast, TAXOL sensitive cell line; cited from earlier work
[20] = system: MDA-MB-435; details: MDA-MB-435, breast, TAXOL sensitive cell line; cited from earlier work
[21] = system: tumor; details: animal models; cited from earlier work

In the case of CC(=O)O[C@H]1C(=O)[C@@]2(C)[C@H]([C@H](OC(=O)c3ccccc3)[C@]3(O)C[C@H](OC(=O)[C@H](O)[C@@H](NC(=O)c4ccccc4)c4ccccc4)C(C)=C1C3(C)C)[C@]1(OC(C)=O)CO[C@@H]1C[C@@H]2O [TAXOL], the “Log Gl 50 for TAXOL (Mean)” value [1] is given as −6.5, the “Log GI 50 for TAXOL (Mean)” value [2] is given as −8.5 and the “Log Gl 50 for TAXOL” value [3] is given as −6.6. The “Log Gl 50 for TAXOL” value [4] was −7.2, the “Log Gl 50 for TAXOL” value [5] was −6.7 and the “Log Gl 50 for TAXOL” value [6] was −6.8. For the same molecule, the “Log Gl 50 for TAXOL” value [7] was −7.1, the “Log Gl 50 for TAXOL” value [8] was −6.3 and the “Log Gl 50 for TAXOL” value [9] was −5.8. The “Log Gl 50 for TAXOL” value [10] was −5.5, the “Log Gl 50 for TAXOL” value [11] was −6.9 and the “Log GI 50 for TAXOL” value [12] was −8.5. For the same molecule, the “Log GI 50 for TAXOL” value [13] was −8.5, the “Log GI 50 for TAXOL” value [14] was −8.6 and the “Log GI 50 for TAXOL” value [15] was −8.3. The “Log GI 50 for TAXOL” value [16] was −8.4, the “Log GI 50 for TAXOL” value [17] was −8.5 and the “Log GI 50 for TAXOL” value [18] was −8.5. For the same molecule, the “Log GI 50 for TAXOL” value [19] was −8.5 and the “Log GI 50 for TAXOL” value [20] was −8.6.

In the case of CC(=O)O[C@@]12CO[C@@H]1C[C@H](O)[C@@]1(C)C(=O)[C@H](O)C3=C(C)[C@@H](OC(=O)[C@H](O)[C@@H](NC(=O)OC(C)(C)C)c4ccccc4)C[C@@](O)([C@@H](OC(=O)c4ccccc4)[C@H]21)C3(C)C [Taxotere, docetaxel], the anti-tumor activity [21] is given as “good anti-tumor activity”.
